What follows are compounds tested against P70S6K (T412E mutant) (Homo sapiens (Human), UniProt P23443, T412E) (assay: P70S6K enzyme assay). Details: 3 nM P70S6K T412E mutant, 24 μM ATP, 1 μM FITC-AHA-AKRRRLSSLRA-OH substrate peptide, 90 min at 25° C.
Type: biochemical
Method in brief: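 IC50s come from mobility-shift separation of phospho-product from FITC-AHA-AKRRRLSSLRA-OH substrate (1 μM) after the reaction was quenched with 10 mM EDTA. The reaction used 3 nM T412E-mutant enzyme and 24 μM ATP, running 90 min at 25° C in 100 mM Hepes pH 7.5 buffer.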

P70S6K (T412E mutant), sequence (P23443 whole entry T412E): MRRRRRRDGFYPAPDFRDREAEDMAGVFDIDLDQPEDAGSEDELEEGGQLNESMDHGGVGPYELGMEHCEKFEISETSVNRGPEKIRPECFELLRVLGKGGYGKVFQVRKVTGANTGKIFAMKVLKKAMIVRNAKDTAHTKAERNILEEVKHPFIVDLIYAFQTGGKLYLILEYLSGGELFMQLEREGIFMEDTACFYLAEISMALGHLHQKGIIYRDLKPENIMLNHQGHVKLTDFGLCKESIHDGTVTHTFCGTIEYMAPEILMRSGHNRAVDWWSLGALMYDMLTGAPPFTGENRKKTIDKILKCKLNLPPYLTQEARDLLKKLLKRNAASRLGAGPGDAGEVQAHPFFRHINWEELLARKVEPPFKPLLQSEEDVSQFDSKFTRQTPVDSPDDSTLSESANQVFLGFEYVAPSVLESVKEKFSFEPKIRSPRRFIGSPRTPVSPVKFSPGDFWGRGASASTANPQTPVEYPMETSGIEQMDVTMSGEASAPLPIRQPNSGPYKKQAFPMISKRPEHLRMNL

Structure (SMILES)	IC50 [nM]
Nc1ncnc(N2CCN(Cc3cc(Cl)c(Cl)cc3O)CC2)c1-c1ccc(F)cc1 [Example 60, 2-((4-(6-amino-5-(4-fluorophenyl)pyrimidin-4-yl)piperazin-1-yl)methyl)-4,5-dichlorophenol]	74
NC[C@H](c1ccc(Cl)nc1)N1CCN(c2ncnc(N)c2-c2ccc(F)cc2)CC1 [Example 176, 6-{4-[(S)-2-Amino-1-(6-chloro-pyridin-3-yl)-ethyl]-piperazin-1-yl}-5-(4-fluoro-phenyl)-pyrimidin-4-ylamine]	0.8
Nc1ncnc(N2CCN(C(CN3CCC3)c3ccc(Cl)c(F)c3)CC2)c1-c1cn[nH]c1 (stereo not shown) [Example 121, 6-{4-[2-Azetidin-1-yl-1-(4-chloro-3-fluoro-phenyl)-ethyl]-piperazin-1-yl}-5-(1H-pyrazol-4-yl)-pyrimidin-4-ylamine]	900
Nc1cc(N2CCN(C(CN3CCCCC3)c3ccc(F)cc3)CC2)ncn1 (stereo not shown) [Example 79, 6-{4-[1-(4-fluoro-phenyl)-2-piperidin-1-yl-ethyl]-piperazin-1-yl}-pyrimidin-4-ylamine]	> 1000
Nc1cc(N2CCN(C(CN3CCCC3)c3ccc(F)cc3)CC2)ncn1 (stereo not shown) [Example 78, 6-{4-[1-(4-fluorophenyl)-2-pyrrolidin-1-yl-ethyl]-piperazin-1-yl}-pyrimidin-4-ylamine]	> 1000
COc1ccc(C(CN)N2CCN(c3ncnc(N)c3-c3ccc(F)cc3)CC2)cn1 (stereo not shown) [Example 183, 6-(4-(2-amino-1-(6-methoxypyridin-3-yl)ethyl)piperazin-1-yl)-5-(4-fluorophenyl)pyrimidin-4-amine]	3.4
N#Cc1cccc([C@@H](CN2CCC2)N2CCN(c3ncnc(N)c3-c3ccc(F)cc3)CC2)c1 [Example 125, 3-((S)-1-{4-[6-Amino-5-(4-fluoro-phenyl)-pyrimidin-4-yl]-piperazin-1-yl}-2-azetidin-1-yl-ethyl)-benzonitrile]	1200
COC[C@H](NC(=O)C1(N)CCN(c2ncnc(N)c2Cl)CC1)c1ccc(Cl)cc1 [Example 234, 4-Amino-1-(6-amino-5-chloro-pyrimidin-4-yl)-piperidine-4-carboxylic acid [(R)-1-(4-chloro-phenyl)-2-methoxy-ethyl]-amide]	560
Nc1ncnc(N2CCN(C(CN3CCC3)c3cccc(F)c3)CC2)c1-c1ccc(F)cc1 (stereo not shown) [Example 90, 6-{4-[2-Azetidin-1-yl-1-(3-fluoro-phenyl)-ethyl]-piperazin-1-yl}-5-(4-fluoro-phenyl)-pyrimidin-4-ylamine]	600
N#CC(C1CCCCC1)N1CCN(c2ncnc(N)c2-c2ccc(F)cc2)CC1 (stereo not shown) [Example 191, {4-[6-Amino-5-(4-fluoro-phenyl)-pyrimidin-4-yl]-piperazin-1-yl}-cyclohexyl-acetonitrile]	200
NCC(c1cccc(C(F)(F)F)c1)N1CCN(c2ncnc(N)c2-c2ccc(F)cc2)CC1 (stereo not shown) [Example 153, 6-{4-[2-Amino-1-(3-trifluoromethyl-phenyl)-ethyl]-piperazin-1-yl}-5-(4-fluoro-phenyl)-pyrimidin-4-ylamine]	11
Nc1ncnc(N2CC[C@@](N)(CNC(=O)c3ccc(F)cc3F)C2)c1-c1ccc(F)cc1 [Example 248, N—{(R)-3-Amino-1-[6-amino-5-(4-fluoro-phenyl)-pyrimidin-4-yl]-pyrrolidin-3-ylmethyl}-2,4-difluoro-benzamide]	290
Nc1ncnc(N2CCC(C(NC3CCCC3)c3ccc(F)cc3)CC2)c1-c1ccc(F)cc1 (stereo not shown) [Example 145, 6-(4-((cyclopentylamino)(4-fluorophenyl)methyl)piperidin-1-yl)-5-(4-fluorophenyl)pyrimidin-4-amine]	120
NCC(c1cc(C(F)(F)F)ccc1F)N1CCN(c2ncnc(N)c2-c2ccc(F)cc2)CC1 (stereo not shown) [Example 192, 6-{4-[2-Amino-1-(2-fluoro-5-trifluoromethyl-phenyl)-ethyl]-piperazin-1-yl}-5-(4-fluoro-phenyl)-pyrimidin-4-ylamine]	13
NCC(c1ccccc1)N1CCN(c2ncnc(N)c2-c2ccc(F)cc2)CC1 (stereo not shown) [Example 6, 6-[4-(2-Amino-1-phenyl-ethyl)-piperazin-1-yl]-5-(4-fluoro-phenyl)-pyrimidin-4-ylamine]	6.3
COC(=O)c1ccc(C(CN2CCC2)N2CCN(c3ncnc(N)c3-c3cn[nH]c3)CC2)cc1 (single isomer, unassigned) [Example 86, 4-(1-{4-[6-Amino-5-(1H-pyrazol-4-yl)-pyrimidin-4-yl]-piperazin-1-yl}-2-azetidin-1-yl-ethyl)-benzoic acid methyl ester]	6400
NC(=O)c1c(N)ncnc1N1CCC(N)(CNC(=O)c2ccc(F)cc2F)C1 (stereo not shown) [Example 197, 4-Amino-6-{3-amino-3-[(2,4-difluoro-benzoylamino)-methyl]-pyrrolidin-1-yl}-pyrimidine-5-carboxamide]	530

Further lines, results first:

IC50 [nM]	Structure (SMILES)
8.5	NCC(c1ccc(Cl)nc1)N1CCN(c2ncnc(N)c2-c2ccc(F)cc2)CC1 (stereo not shown) [Example 174, 6-{4-[2-Amino-1-(6-chloro-pyridin-3-yl)-ethyl]-piperazin-1-yl}-5-(4-fluoro-phenyl)-pyrimidin-4-ylamine]
> 1000	N#CC(c1ccc(F)c(C(F)(F)F)c1)N1CCN(c2ncnc(N)c2-c2ccc(F)cc2)CC1 (stereo not shown) [Example 154, {4-[6-Amino-5-(4-fluoro-phenyl)-pyrimidin-4-yl]-piperazin-1-yl}-(4-fluoro-3-trifluoromethyl-phenyl)-acetonitrile]
450	CCc1c(N)ncnc1N1CCC(N)(C(=O)N[C@@H](CCO)c2ccc(Cl)cc2)CC1 [Example 214, 4-Amino-1-(6-amino-5-ethyl-pyrimidin-4-yl)-piperidine-4-carboxylic acid [(S)-1-(4-chloro-phenyl)-3-hydroxy-propyl]-amide]
4.9	CN(C)CC(c1ccc(C(F)(F)F)cc1)N1CCN(c2ncnc(N)c2-c2ccc(F)cc2)CC1 (stereo not shown) [Example 15, 6-(4-(2-(dimethylamino)-1-(4-(trifluoromethyl)phenyl)ethyl)piperazin-1-yl)-5-(4-fluorophenyl)pyrimidin-4-amine]
15	Nc1ncnc(N2CCN(C(CN3CCCC3)c3ccc(F)cc3)CC2)c1-c1ccc(F)cc1 (stereo not shown) [Example 75, 5-(4-Fluorophenyl)-6{4-[1-(4-fluorophenyl)-2-pyrrolidin-1-yl-ethyl]-piperazin-1-yl}-pyrimidin-4-ylamine]
5.8	NCC(c1ccc(C(F)(F)F)cc1)N1CCN(c2ncnc(N)c2-c2cc[nH]c2)CC1 (stereo not shown) [Example 37, 6-(4-(2-amino-1-(4-(trifluoromethyl)phenyl)ethyl)piperazin-1-yl)-5-(1H-pyrrol-3-yl)pyrimidin-4-amine]
1400	Nc1ncnc(N2CCN([C@H](CN3CCC3)c3cccc(F)c3)CC2)c1-c1ccc(F)cc1 [Example 102, 6-{4-[(S)-2-Azetidin-1-yl-1-(3-fluoro-phenyl)-ethyl]-piperazin-1-yl}-5-(4-fluoro-phenyl)-pyrimidin-4-ylamine]
110	N#CC(c1ccc(Cl)nc1)N1CCN(c2ncnc(N)c2-c2ccc(F)cc2)CC1 (stereo not shown) [Example 173, {4-[6-Amino-5-(4-fluoro-phenyl)-pyrimidin-4-yl]-piperazin-1-yl}-(6-chloro-pyridin-3-yl)-acetonitrile]
280	Cc1ccc([C@H](CCO)NC(=O)C2(N)CCN(c3ncnc(N)c3C#N)CC2)cc1 [Example 227, 4-Amino-1-(6-amino-5-cyano-pyrimidin-4-yl)-piperidine-4-carboxylic acid ((S)-3-hydroxy-1-p-tolyl-propyl)-amide]
3800	Nc1ncnc(N2CCN(C(CN3CCC3)c3ccc(F)c(C(F)(F)F)c3)CC2)c1-c1cn[nH]c1 (stereo not shown) [Example 101, 6-{4-[2-Azetidin-1-yl-1-(4-fluoro-3-trifluoromethyl-phenyl)-ethyl]-piperazin-1-yl}-5-(1H-pyrazol-4-yl)-pyrimidin-4-ylamine]
120	Nc1ncnc(N2CCN(C(CN3CCCCC3)c3cccc(C(F)(F)F)c3)CC2)c1-c1ccc(F)cc1 (stereo not shown) [Example 65, 5-(4-Fluorophenyl)-6{4-[1-(3-trifluoro-phenyl)-2-piperidin-1-yl-ethyl]-piperazin-1-yl}-pyrimidin-4-ylamine]
82	Nc1ncnc(N2CCN(C(CN3CCCC3)c3cccc(C(F)(F)F)c3)CC2)c1-c1ccc(F)cc1 (stereo not shown) [Example 66, 5-(4-Fluorophenyl)-6{4-[1-(3-trifluoromethyl-phenyl)-2-pyrrolidin-1-yl-ethyl]-piperazin-1-yl}-pyrimidin-4-ylamine]
34.5	Cn1ccnc1C(c1ccccc1)N1CCN(c2ncnc(N)c2-c2ccc(F)cc2)CC1 (stereo not shown) [Example 30, 5-(4-Fluoro-phenyl)-6-{4-[(1-methyl-1H-imidazol-2-yl)-phenyl-methyl]-piperazin-1-yl}-pyrimidin-4-ylamine]
6	NCC(c1ccc(Cl)c(Cl)c1)N1CCN(c2ncnc(N)c2-c2ccc(F)cc2)CC1 (stereo not shown) [Example 157, 6-{4-[2-Amino-1-(3,4-dichloro-phenyl)-ethyl]-piperazin-1-yl}-5-(4-fluoro-phenyl)-pyrimidin-4-ylamine]
3600	Nc1ncnc(N2CCN(C(CN3CCC3)c3ccc(F)c(Cl)c3)CC2)c1-c1cn[nH]c1 (stereo not shown) [Example 135, 6-{4-[2-Azetidin-1-yl-1-(3-chloro-4-fluoro-phenyl)-ethyl]-piperazin-1-yl}-5-(1H-pyrazol-4-yl)-pyrimidin-4-ylamine]
66	Nc1ncnc(N2CCC(Cc3ccc(C(F)(F)F)cc3)CC2)c1-c1ccc(F)cc1 [Example 48, 5-(4-Fluorophenyl)-6{4-(4-trifluoromethylbenzyl)-piperidin-1-yl}pyrimidin-4-amine]
48.5	NCC(c1ccc(C(F)(F)F)cc1)N1CCN(c2ncnc(N)c2OCC(F)(F)F)CC1 (stereo not shown) [Example 33, 6-(4-(2-amino-1-(4-(trifluoromethyl)phenyl)ethyl)piperazin-1-yl)-5-(2,2,2-trifluoroethoxy)pyrimidin-4-amine]
